Assay results: ChEMBL document CHEMBL5096176, “AAA ATPases as therapeutic targets: Structure, functions, and small-molecule inhibitors” (Eur J Med Chem, 2021)

Experiments:
Influenza A virus [1] = assay: Antiviral activity against Amantadine -resistant Influenza A virus (A/Washington/29/2009 (H1N1)) infected in MDCK cells overexpressing ST6Gal I assessed as inhibition of viral replication by plaque assay; format: functional, organism-based
[2] = Selectivity index, ratio of CC50 for MDCK cells to EC50 for Amantadine-resistant Influenza A virus (A/WSN/1933 (H1N1)) infected in MDCK cells; format: toxicity, cell-based; settings: dog, read-out: Ratio CC50/EC50
Influenza A virus [3] = assay: Antiviral activity against Oseltamivir-resistant Influenza A virus (A/North Carolina/39/2009 (H1N1)) infected in MDCK cells over expressing ST6Gal I assessed as inhibition of viral replication by plaque assay; format: functional, organism-based
Influenza A virus [4] = assay: Antiviral activity against Amantadine-resistant Influenza A virus (A/WSN/1933 (H1N1)) infected in MDCK cells over expressing ST6Gal I assessed as inhibition of viral replication by plaque assay; format: functional, organism-based
[5] = Selectivity index, ratio of CC50 for MDCK cells to EC50 for Amantadine-resistant Influenza A virus (A/Washington/29/2009 (H1N1)) infected in MDCK cells; format: toxicity, cell-based; settings: dog, read-out: Ratio CC50/EC50

For `Cc1cc(OCc2nnc(SC3CCCC3)n2-c2cccnc2)ccc1-c1ccc(S(C)(=O)=O)cc1`, the EC50 (Influenza A virus [1]) was 30 nM, the selectivity ratio [2] was 50 and the EC50 (Influenza A virus [3]) was 30 nM. It also gave an EC50 (Influenza A virus [4]) of 30 nM and a selectivity ratio [5] of 50.
